Measurements published in the CATMoS acute toxicity set (Mansouri et al. 2021).

Experiment: GHS categories as the set defines them, by LD50: 1 up to 5, 2 up to 50, 3 up to 300, 4 up to 2000, 5 above 2000 mg/kg
Settings: rat; in vivo; po
For `NC(=O)CCNCCO`, the GHS category was 5.
`O=C1Nc2ccccc2OC1(c1ccc(O)cc1)c1ccc(O)cc1` gave a GHS category of 5.
Compound `CC(=O)NCc1c(I)c(NC(C)=O)c(I)c(C(=O)O)c1I` has a GHS category of 5.
`O=C1NC(=O)c2ccc3c4cccc5cccc(c6ccc1c2c63)c54` showed a GHS category of 5.
`C[SiH]1O[SiH](C)O[SiH](C)O[SiH](C)O[SiH](C)O1` (configuration not stated) gave a GHS category of 5.
For `COc1ccccc1OCCNCC(O)COc1cccc2[nH]c3ccccc3c12` (configuration not stated), the GHS category was 5.
`OCC(CO)(CO)COCC(CO)(CO)CO` showed a GHS category of 5.
For `C[C@@H]1CCN(C(=O)[C@H](CCCNC(=N)N)NS(=O)(=O)c2cccc3c2NC[C@H](C)C3)[C@@H](C(=O)O)C1`, the GHS category was 5.
Work on `CCCCCCCCCCCCCCCCCCOC(=O)CCSCCC(=O)OCCCCCCCCCCCCCCCCCC` yielded a GHS category of 5.
For `CCCCC(CC)C(c1ccc(O)cc1)c1ccc(O)cc1` (configuration not stated), the GHS category was 4.
In the case of `C[C@@H]1C[C@H]2[C@@H]3CCC4=CC(=O)C=C[C@]4(C)[C@@]3(F)[C@@H](O)C[C@]2(C)[C@@]1(O)C(=O)CO`, the GHS category was 5.
In the case of `CCCc1ccc(OCC(=O)N2CCN(C(=O)COc3ccc(CCC)cc3OC)CC2)c(OC)c1`, the GHS category was 4.
Compound `CCCCCCCCCCCCCCCCCCCC` has a GHS category of 5.
`CN1C(=O)C(C)(C)Oc2cc(C(=O)C=Cc3ccc(Cl)cc3)ccc21` gave a GHS category of 5.
With `CCCC(=O)OCCC(C)CCCC(C)C` (configuration not stated) the GHS category was 5.
For `CN1C(C(=O)Nc2ccccc2)=C(O)c2ccccc2S1(=O)=O`, the GHS category was 5.
Work on `O=C(O)c1ccccc1C(=O)N1CCSC1` yielded a GHS category of 5.
Compound `c1ccc(OCCOc2ccccc2)cc1` has a GHS category of 5.
For `CC1=NN(c2cccc(S(=O)(=O)O)c2)C(=O)C1/N=N/c1cc(Cl)c(C)cc1S(=O)(=O)O` (configuration not stated), the GHS category was 5.
With `CCC1=NN(C(=O)NC(=O)c2ccc(Cl)cc2)C(C)(CC)C1` (configuration not stated) the GHS category was 5.
`CC(C)C1=CC23CCC4C(C)(C(=O)N5CCOCC5)CCCC4(C)C2CC1C1C(=O)OC(=O)C13` (configuration not stated) gave a GHS category of 5.
For `O=[N+]([O-])c1cc2c(Nc3ccc(F)c(Cl)c3)ncnc2cc1S(=O)(=O)c1ccccc1`, the GHS category was 5.
`COC(=O)C(C=O)c1ccccc1` (configuration not stated) showed a GHS category of 4.
`COCc1c(Cc2ccc(-c3ccccc3-c3nn[nH]n3)cc2)c(=O)nc2nc[nH]n12` gave a GHS category of 4.
`Nc1nc2c(ncn2[C@@H]2O[C@H](COP(=O)(O)O)[C@@H](O)[C@H]2O)c(=O)[nH]1` gave a GHS category of 5.
Compound `CC(C)(C)[C@H]1CC[C@H](O)CC1` has a GHS category of 5.
`Cc1cc2cc3c(C)cc(=O)oc3c(C)c2o1` showed a GHS category of 5.
Work on `CNC(=O)C(=NNc1ccc(Cl)c(Cl)c1)C(C)=O` yielded a GHS category of 5.
With `CC1=CC(=O)N(Cc2cccc(CN3C(=O)C=C(C)C3=O)c2)C1=O` the GHS category was 5.
For `O=CC1=C(C(Cl)(Cl)Cl)C(Cl)(Cl)C(O)C1(Cl)Cl` (configuration not stated), the GHS category was 4.
Compound `COc1ccc(C2c3ccc(OC)cc3CCN2c2ccccc2)cc1` (configuration not stated) has a GHS category of 4.
With `FC(F)(F)c1cccc(C(c2ccccc2)(c2ccccc2)n2cncn2)c1` the GHS category was 5.
Compound `Cn1c(N)cc(=O)n(C)c1=O` has a GHS category of 5.
Compound `Cc1nn(-c2ccc3cc(-c4ccccc4)c(=O)oc3c2)nc1-c1ccccc1` has a GHS category of 5.
`NS(=O)(=O)c1cc(C(=O)NN2C[C@H]3[C@H]4CCC(C4)[C@H]3C2)ccc1Cl` gave a GHS category of 5.
`O=CCCc1ccccc1` showed a GHS category of 5.
In the case of `CC(=O)C(N=Nc1cc(C(=O)Nc2cc(Cl)ccc2C)ccc1Cl)C(=O)Nc1cc(C)c(NC(=O)C(N=Nc2cc(C(=O)Nc3cc(Cl)ccc3C)ccc2Cl)C(C)=O)cc1C` (configuration not stated), the GHS category was 5.
With `CCCCCCCCCCCCN1CCCCCC1=O` the GHS category was 5.
Compound `CC(C)C[Si](Cl)(Cl)Cl` has a GHS category of 3.
Work on `CC(C)=CC(C)(C)CC(C)(C)C` yielded a GHS category of 5.
Compound `CC[C@H]1CO[C@@](Cn2ccnc2)(c2cc3cc(Cl)cc(Cl)c3o2)O1` has a GHS category of 4.
For `COc1ccc(NC(=O)c2cc3ccccc3cc2O)cc1`, the GHS category was 5.
Work on `C=C(C)C(=O)OCCOC(=O)CC(C)=O` yielded a GHS category of 5.
In the case of `O=C1CCc2c(OCC(O)CN3CCC(Cc4ccccc4)CC3)cccc2N1Cc1ccccc1` (configuration not stated), the GHS category was 4.
With `CCCCCCCCNC(=O)c1cnc2cccc(C)n2c1=O` the GHS category was 3.
In the case of `O=C1OCC[C@@H]1O`, the GHS category was 5.
`CC(=O)C(O)O` showed a GHS category of 5.
`COc1ccc2cc3[n+](cc2c1OC)CCc1cc2c(cc1-3)OCO2` gave a GHS category of 5.
`CC(=O)CC(=O)OCCOC(=O)CC(C)=O` gave a GHS category of 5.
With `CNc1cnn(-c2cccc(C(F)(F)F)c2)c(=O)c1Cl` the GHS category was 5.
For `CC(=O)OC1CC[C@H]2[C@@H]3CC[C@H]4CC(=O)C=C(C)[C@]4(C)[C@H]3CC[C@]12C` (some centres not stated), the GHS category was 5.
For `CC(C)=CCN(CC=C(C)C)CCC(C#N)c1cccc2ccccc12` (configuration not stated), the GHS category was 4.
With `CC(=O)OCOC(=O)C1=C(COC(N)=O)SC2C(C(C)O)C(=O)N12` (configuration not stated) the GHS category was 5.
In the case of `COCC(=O)N(c1c(C)cccc1C)[C@H](C)C(=O)OC`, the GHS category was 4.
`O=C(Nc1ccc(Cl)cc1)NS(=O)(=O)c1ccc2c(c1)CCC2` showed a GHS category of 4.
With `CC(O)CO[C@@H]1[C@@H](O)[C@H]2O[C@H]3[C@H](OCC(C)O)[C@@H](O)[C@@H](O[C@H]4[C@H](O)[C@@H](OCC(C)O)[C@@H](O[C@H]5[C@H](O)[C@@H](O)[C@@H](O[C@H]6[C@H](O)[C@@H](OCC(C)O)[C@@H](O[C@H]7[C@H](O)[C@@H](O)[C@@H](O[C@@H]1[C@@H](CO)O2)O[C@@H]7CO)O[C@@H]6CO)O[C@@H]5CO)O[C@@H]4CO)O[C@@H]3CO` (some centres not stated) the GHS category was 5.
In the case of `CCN(CC)CCC#N`, the GHS category was 4.
Compound `C=CC/C=C/C/C=C/C/C=C/C` has a GHS category of 5.
In the case of `CCCCCCCCCCCCCCCCCCCCCCc1ccccc1`, the GHS category was 5.
With `Clc1ccc(N/C(=N/C2CCCCC2)c2ccccc2)c(Cl)c1` the GHS category was 5.
`CCCCCCCCC(=O)NO` gave a GHS category of 5.
In the case of `CN1CN(C)CN(C)C1`, the GHS category was 4.
`CCCCC(CC)CNc1ccc2ccccc2c1N=Nc1ccc(N=Nc2ccccc2C)cc1C` (configuration not stated) showed a GHS category of 5.
`CNC(=O)C(=NNc1ccccc1)C(C)=O` gave a GHS category of 5.
For `CCC(C)Cl` (configuration not stated), the GHS category was 5.
In the case of `CN1C(=O)CCc2ccc(OCCCN3CCC(Cc4ccccc4)CC3)cc21`, the GHS category was 4.
Compound `CCCCCCCC[N+](C)(C)[O-]` has a GHS category of 5.
Work on `CC(=O)OC1CCC2(C)C(CCC3(C)C2C(=O)C=C2C4CC(C)(C(=O)O)CCC4(C)CCC23C)C1(C)C` (configuration not stated) yielded a GHS category of 5.
In the case of `CC1(C)C[C@@H]1C(=O)N/C(=C\CCCCSC[C@H](N)C(=O)O)C(=O)O`, the GHS category was 5.
For `O=C1c2ccc(Br)cc2C(=O)C1(Br)c1ccc2ccccc2c1` (configuration not stated), the GHS category was 5.
`O=C1C(O)N=C(c2ccccc2)c2cc(Cl)ccc2N1CC1CC1` (configuration not stated) showed a GHS category of 5.
With `CO/N=C(\C(=O)N[C@@H]1C(=O)N2C(C(=O)O)=CCS[C@H]12)c1csc(N)n1` the GHS category was 5.
Compound `COc1ccc(CC(C)NCC(O)c2ccc(O)c(CO)c2)cc1` (configuration not stated) has a GHS category of 4.
With `CNc1cccc(NC(=O)C(=O)O)c1C#N` the GHS category was 5.
`CC(C)CCCCCCCOCCC#N` showed a GHS category of 5.
`Cc1c(C)c2c(c(C)c1O)CCC(C)(CCCC(C)CCCC(C)CCCC(C)C)O2` (racemic) showed a GHS category of 5.
With `CC(=O)OC1CN(C)C(=O)N1c1cc(C(C)(C)C)on1` (configuration not stated) the GHS category was 4.
Work on `CC(C#N)c1cccc(C(=O)c2ccccc2)c1` (configuration not stated) yielded a GHS category of 4.
With `O=C1NC(=O)c2ccc3c4ccc5c6c(ccc(c7ccc1c2c73)c64)C(=O)NC5=O` the GHS category was 5.
`CCOC(=O)CSc1nc(C(C)(C)C)nn1C(=O)N(C)C` showed a GHS category of 3.
`CCCc1nc2ncnn2c(CCC)c1Cc1ccc(-c2ccccc2-c2nn[nH]n2)cc1` showed a GHS category of 4.
`CCCCCCCCCCCCCCCc1cccc(OC(=O)c2ccccc2OC(N)=O)c1` showed a GHS category of 5.
Work on `O=c1[nH]c(=O)n(C2OC(CO)C(O)C2O)cc1C=CBr` (configuration not stated) yielded a GHS category of 5.
`O=C1CCc2c(cccc2OCCCN2CCC(O)(c3ccccc3)CC2)N1` showed a GHS category of 4.
Compound `CC1CC(OC(=O)C(Oc2ccccc2Cl)C(C)C)CC(C)(C)C1` (configuration not stated) has a GHS category of 5.
Work on `CCCCCCCCCCCCCCCCCC(=O)OCC` yielded a GHS category of 5.
With `CN1C(C(=O)Nc2ccc(O)cn2)=C(O)c2sccc2S1(=O)=O` the GHS category was 2.
For `CCOCC(O)COc1ccc(NC(=O)CC[S+](C)C)cc1` (configuration not stated), the GHS category was 5.
`Cc1ccc(Nc2nc(Nc3ccc(C)cc3)c(N=Nc3ccccc3C(F)(F)F)c(C)c2C#N)cc1` gave a GHS category of 5.
For `CCCCCCCC1CCCC(=O)O1` (configuration not stated), the GHS category was 5.
`CNc1ccc(C(=O)c2cccs2)cc1O` showed a GHS category of 5.
Compound `CC(C)=CCC/C(C)=C/COCC=O` has a GHS category of 5.
For `CSCC[C@H](NC(=O)CCSC(=O)c1ccccc1)C(=O)O`, the GHS category was 5.
Compound `COC(=O)Nc1nc2cc(Sc3ccccc3)ccc2[nH]1` has a GHS category of 5.
In the case of `Fc1ccc(N/C(=N/C2CCCCC2)c2ccccc2)cc1`, the GHS category was 5.
`CC(C)(C)CC(C)(C)c1cc(-n2nc3ccccc3n2)c(O)c(C(C)(C)c2ccccc2)c1` showed a GHS category of 5.
With `CCn1ccc(=O)n2nc(-c3cccs3)cc12` the GHS category was 4.
In the case of `C=CC=CC=CC=CC=CC=CC=CC`, the GHS category was 5.
`CCOC(=O)NC(=S)Nc1ccccc1NC(=S)NC(=O)OCC` gave a GHS category of 5.
`Cc1cc(Cc2cc(C)cc(C3CCCCC3)c2O)c(O)c(C2CCCCC2)c1` gave a GHS category of 5.
`CCOC(=O)c1ccc(NC(=O)C=C(C)C=CC=C(C)C=CC2=C(C)CCCC2(C)C)cc1` showed a GHS category of 5.
For `O=C(NC(=O)C(Cl)(Cl)Cl)NS(=O)(=O)c1ccccc1`, the GHS category was 5.
With `CN(C)CCSc1nc2ccccc2cc1-c1ccccc1` the GHS category was 4.
For `CN1C(CSCC(F)(F)F)Nc2cc(Cl)c(S(N)(=O)=O)cc2S1(=O)=O` (configuration not stated), the GHS category was 2.
For `CC1OC(OC2CCC(OC3C(O)CC(c4ccc5c(c4O)C(=O)C4=C(C5=O)C5(O)C(=O)CC(C)(OC6CCC(OC7C=CC(=O)C(C)O7)C(C)O6)CC5(O)C=C4)OC3C)OC2C)C=CC1=O` (configuration not stated), the GHS category was 4.
With `COC(=O)c1nc(Cl)c(Cl)nc1N` the GHS category was 5.
In the case of `CCCCOc1nn(-c2cccc(C(F)(F)F)c2)c2ncccc12`, the GHS category was 4.
Work on `COc1ccc2[nH]c(C)c(CC(=O)OCC(=O)O)c2c1` yielded a GHS category of 5.
`CC[n+]1c(-c2ccccc2)c2cc(N)ccc2c2ccc(N)cc21` gave a GHS category of 5.
For `OCC1CN2CCN1CC2` (configuration not stated), the GHS category was 5.
For `COc1cc(C(=O)OCc2cccc(COC(=O)c3cc(OC)c(OC)c(OC)c3)n2)cc(OC)c1OC`, the GHS category was 5.
In the case of `COc1ccc(C(=O)C2CC2)cc1`, the GHS category was 4.
